Values quoted from earlier work as cited in patent US20050090660A1, “2'-deoxy-L-nucleosides” (priority 1999, published 2005).

Key:
[1] = tested on: HBV; settings: HBV patients, two and four week courses
[2] = tested on: hepatoma cell lines
[3] = molecular target: T1, polymerase γ (Homo sapiens, UniProt P54098); settings: polymerase responsible for mitochondrial DNA chain elongation
T1 sequence (P54098 1-1239): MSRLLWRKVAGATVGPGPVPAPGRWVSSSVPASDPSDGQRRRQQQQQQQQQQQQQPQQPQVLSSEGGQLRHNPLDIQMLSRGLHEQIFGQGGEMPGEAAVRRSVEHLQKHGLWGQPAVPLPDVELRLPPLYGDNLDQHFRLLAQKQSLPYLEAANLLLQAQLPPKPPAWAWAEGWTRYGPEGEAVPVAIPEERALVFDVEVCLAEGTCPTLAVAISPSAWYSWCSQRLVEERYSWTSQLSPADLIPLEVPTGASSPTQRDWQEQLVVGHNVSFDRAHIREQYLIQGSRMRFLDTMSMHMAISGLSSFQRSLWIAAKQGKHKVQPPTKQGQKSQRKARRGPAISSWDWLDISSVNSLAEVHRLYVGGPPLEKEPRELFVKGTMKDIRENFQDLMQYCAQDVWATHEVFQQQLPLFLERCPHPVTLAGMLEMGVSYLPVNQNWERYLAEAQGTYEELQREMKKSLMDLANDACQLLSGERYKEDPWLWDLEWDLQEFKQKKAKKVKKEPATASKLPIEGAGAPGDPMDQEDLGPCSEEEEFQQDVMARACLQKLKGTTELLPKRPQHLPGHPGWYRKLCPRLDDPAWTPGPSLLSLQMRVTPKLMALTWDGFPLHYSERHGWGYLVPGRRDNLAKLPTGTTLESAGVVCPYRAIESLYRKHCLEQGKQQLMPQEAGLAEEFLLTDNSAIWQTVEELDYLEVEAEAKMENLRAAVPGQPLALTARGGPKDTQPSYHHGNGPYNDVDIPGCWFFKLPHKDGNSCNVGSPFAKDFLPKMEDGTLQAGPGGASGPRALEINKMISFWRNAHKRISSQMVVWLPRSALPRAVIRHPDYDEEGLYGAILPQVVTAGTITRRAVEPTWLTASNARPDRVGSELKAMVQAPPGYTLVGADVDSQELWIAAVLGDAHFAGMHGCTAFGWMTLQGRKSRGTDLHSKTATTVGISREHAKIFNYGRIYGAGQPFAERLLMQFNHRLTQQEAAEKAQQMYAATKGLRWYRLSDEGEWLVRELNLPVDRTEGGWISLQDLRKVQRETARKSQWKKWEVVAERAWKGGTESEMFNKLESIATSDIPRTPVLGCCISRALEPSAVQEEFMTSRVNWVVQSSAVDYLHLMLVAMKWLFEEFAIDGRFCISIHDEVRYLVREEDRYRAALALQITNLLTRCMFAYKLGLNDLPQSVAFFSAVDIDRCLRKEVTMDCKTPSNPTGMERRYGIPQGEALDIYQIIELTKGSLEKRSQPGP

[4] = tested on: uninfected HepG2 cells
[5] = tested on: mitochondrial DNA synthesis and lactic acid production
[6] = tested on: HIV; settings: specificity versus HBV

lactic acid production [2] | Compound | suppression of serum HBV DNA levels [1] | patients who died from hepatic failure (of the 7 patients with delayed hepatotoxicity, trial with 15 patients) | patients with delayed hepatotoxicity (prolonged treatment trial with 15 patients) | substrate activity for polymerase γ [3] | morphological changes in HepG2 cells ([4]; treated at up to 100 μM) | effect on lactic acid production [5] | effect on mitochondrial DNA synthesis [5] | activity against HIV [6] | IC50 [4]
 | O=c1[nH]c(=O)n([C@@H]2O[C@H](CO)[C@@H](O)[C@@H]2F)cc1I [FIAU] | ≤ 95% | 5 | 7 patients |  |  |  |  |  | 
no significant | Cc1cn([C@H]2O[C@@H](CO)[C@H](O)[C@H]2F)c(=O)[nH]c1=O [L-FMAU] |  |  |  |  |  |  |  |  | 
 | Nc1ncnc2c1ncn2[C@@H]1C[C@@H](O)[C@H](CO)O1 [L-dAdo, 2′-deoxy-β-L-adenosine] |  |  |  | little, if any | no morphological changes | no effect | no effect | not HIV | 
 | Nc1ccn([C@@H]2C[C@@H](O)[C@H](CO)O2)c(=O)n1 [L-dCyd, 2′-deoxy-β-L-cytidine] |  |  |  | little, if any |  | no effect | no effect | not HIV | > 200 µM
 | Cc1cn([C@@H]2C[C@@H](O)[C@H](CO)O2)c(=O)[nH]c1=O [L-dThd, 2′-Deoxy-β-L-thymidine] |  |  |  | little, if any |  | no effect | no effect | not HIV | > 200 µM
